Earlier results in US10639343B2, “Preparation method of Gynostemma pentaphyllum leaves extract and Gynostemma pentaphyllum extract prepared by the method thereof” (BTC CORPORATION, priority 2018, dated 2020).

Details: intraperitoneal injection, without training

## NC(=O)c1ncn([C@@H]2O[C@H](COP(=O)(O)O)[C@@H](O)[C@H]2O)c1N [AICAR, 5-aminoimidazole-4-carboxamide ribonucleotide]
  increase of the distance of exercise performance: 44%
